Source: article PMC6001238, “Iterative Chemical Engineering of Vancomycin Leads to Novel Vancomycin Analogs With a High in Vitro Therapeutic Index” (Frontiers in Microbiology, 2018)
Values after ≈ are worked out from the molar mass of the structure shown. Read-outs that look alike come from different tables or passages of the source.

Tests used:
[1] = test system: Clostridium difficile AIU ribotype 027; experiment: MIC, plate drop assay, C. difficile AIU ribotype 027; format: cell-based; details: for MIC-fold improvement vs. vancomycin: C. difficile AIU ribotype 027
In short: (§1)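 Twofold dilution series of test compounds were spotted onto C. difficile lawns in 0.4% BHI agar containing added calcium and magnesium salts. After overnight anaerobic incubation at 37°C, growth inhibition was scored by spot clearing; triplicate runs, ultrapure water negative control.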

MRSA KS2 = experiment: MIC, broth microdilution, MRSA KS2; format: cell-based, Staphylococcus aureus
In short: (§2)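 Serial dilutions in broth, set up per CLSI guidance, gave the MIC. Where noted, test analogues or comparator antibiotics were combined with vancomycin at 10 μM final. Controls: ultrapure water, broth without inoculum.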

[2] = test system: 24 clinical MRSA isolates; experiment: MIC against a set of 24 clinical MRSA isolates (range, MIC50, TI); format: cell-based, Staphylococcus aureus
In short: as §2

VE 150 (VanB) = experiment: MIC, VanB-type VRE strain VE 150; format: cell-based, Enterococcus; details: VE 150, VanB; read-out: MIC
In short: as §2

VE 82 (VanC1) = experiment: MIC, VanC1-type VRE strain VE 82; format: cell-based, Enterococcus gallinarum; details: VE 82, VanC1; read-out: MIC
In short: as §2

[3] = test system: human cervix carcinoma (HeLa) cells; experiment: Cytostatic activity, HeLa cell proliferation; format: cell-based; details: mean ± SD of three experiments; highest concentration tested 250 µM; 4 days; read-out: Toxicity (IC50) HeLa
In short: (§3)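 Readout: Coulter cell number after drug exposure at 37°C. Durations differ by line (L1210 2 days; CEM 3 days; HeLa 4 days). Stock suspension 300,000–500,000 cells/mL, diluted by mixing with compound. Endpoint: IC50 vs negative control.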

[4] = test system: Clostridium difficile ATJ ribotype 014/20; experiment: MIC, plate drop assay, C. difficile ATJ ribotype 014/20; format: cell-based; details: for MIC-fold improvement vs. vancomycin: C. difficile ATJ ribotype 014/20
In short: as §1

VE 157 (VanB) = experiment: MIC, VanB-type VRE strain VE 157; format: cell-based, Enterococcus; details: VE 157, VanB; read-out: MIC
In short: as §2

MRSA KS89 = experiment: MIC, broth microdilution, MRSA KS89; format: cell-based, Staphylococcus aureus
In short: as §2

VE 152 (VanB) = experiment: MIC, VanB-type VRE strain VE 152; format: cell-based, Enterococcus; details: VE 152, VanB; read-out: MIC
In short: as §2

MRSA KS1 = experiment: MIC, broth microdilution, MRSA KS1; format: cell-based, Staphylococcus aureus
In short: as §2

E. faecalis VSE 1 = experiment: MIC, broth microdilution, vancomycin-sensitive E. faecalis (VSE 1); format: cell-based, Enterococcus faecalis
In short: as §2

VE 149 (VanB) = experiment: MIC, VanB-type VRE strain VE 149; format: cell-based, Enterococcus; details: VE 149, VanB; read-out: MIC
In short: as §2

[5] = test system: human T-lymphocyte (CEM) cells; experiment: Cytostatic activity, CEM cell proliferation; format: cell-based; details: mean ± SD of three experiments; highest concentration tested 250 µM; 3 days; read-out: Toxicity (IC50) CEM
In short: as §3

MRSA = experiment: Minimum bactericidal concentration against MRSA; format: cell-based, Staphylococcus aureus
Protocol: Plates were incubated overnight at 37°C and colony growth was inspected.

S. aureus VISA/HIP5827 = experiment: MIC, broth microdilution, vancomycin-intermediate S. aureus VISA HIP5827; format: cell-based, Staphylococcus aureus
In short: as §2

[6] = test system: Murine leukemia (L1210) cells; experiment: Cytostatic activity, L1210 cell proliferation; format: cell-based; details: mean ± SD of three experiments; highest concentration tested 250 µM; 2 days; read-out: Toxicity (IC50) L1210
In short: as §3

[7] = test system: L1210, CEM and HeLa cell lines; experiment: Cytostatic activity, average or summary over L1210, CEM and HeLa; format: cell-based
In short: as §3

E. faecalis VRE 29 = experiment: MIC, broth microdilution, vancomycin-resistant E. faecalis VRE 29 (VanA); format: cell-based, Enterococcus faecalis
In short: as §2

33 clinical VRE isolates = experiment: MIC against a set of 33 clinical VRE isolates (range, MIC50, TI); format: cell-based, Enterococcus faecalis
In short: as §2

E. faecalis VRE 37 = experiment: MIC, broth microdilution, vancomycin-resistant E. faecalis VRE 37 (VanA); format: cell-based, Enterococcus faecalis
In short: as §2

VE 148 (VanB) = experiment: MIC, VanB-type VRE strain VE 148; format: cell-based, Enterococcus; details: VE 148, VanB; read-out: MIC
In short: as §2

E. faecalis VRE 6 = experiment: MIC, broth microdilution, vancomycin-resistant E. faecalis VRE 6 (VanA); format: cell-based, Enterococcus faecalis
In short: as §2

[8] = test system: S. aureus VSSA (ATCC 6538); experiment: MIC, broth microdilution, vancomycin-sensitive S. aureus (VSSA/MSSA, ATCC 6538); format: cell-based, Staphylococcus aureus
In short: as §2

E. faecalis VRE 53 = experiment: MIC, broth microdilution, vancomycin-resistant E. faecalis VRE 53 (VanA); format: cell-based, Enterococcus faecalis
In short: as §2

MRSA KS6 = experiment: MIC, broth microdilution, MRSA KS6; format: cell-based, Staphylococcus aureus
In short: as §2

S. aureus VRSA = experiment: MIC, broth microdilution, vancomycin-resistant S. aureus (VRSA); format: cell-based, Staphylococcus aureus
In short: as §2

Q: What does the source list for `CNC(CC(C)C)C(=O)NC1C(=O)NC(CC(N)=O)C(=O)NC2C(=O)NC3C(=O)NC(C(=O)NC(C(=O)NCCCNC(=O)c4ccc5cc(NS(=O)(=O)c6ccc(C(C)C)cc6)ccc5c4)c4cc(O)cc(O)c4-c4cc3ccc4O)C(O)c3ccc(c(Cl)c3)Oc3cc2cc(c3OC2OC(CO)C(O)C(O)C2OC2CC(C)(N)C(O)C(C)O2)Oc2ccc(cc2Cl)C1O` (stereo not drawn) [Vanc-66]?
A: MIC-fold improvement vs. vancomycin [1]: ≤ 58; MIC ([1]; C. difficile AIU ribotype 027, plate drop assay): 0.78 µM (≈ 1.45 µg/mL); MIC-fold improvement vs. vancomycin ([1]; listed as Vanc- 66): 58; MIC-fold improvement vs. vancomycin (MRSA KS2; MRSA KS2, ratio of MIC of vancomycin and MIC of analogue): 2; MIC (MRSA KS2; Staphylococcus aureus MRSA KS2, read-out: MIC): 0.39 µM (≈ 0.724 µg/mL); MIC Range ([2]; 24 clinical MRSA isolates): 0.20 to 3.13 µM; TI (IC50/MIC50) ([2]; in vitro therapeutic index, MRSA): 238; MIC50 ([2]; median MIC, 24 clinical MRSA isolates, read-out: MIC50): 0.78 µM (≈ 1.45 µg/mL); MIC (VE 150 (VanB)): 0.78 µM (≈ 1.45 µg/mL); MIC (VE 82 (VanC1)): 0.78 µM (≈ 1.45 µg/mL); IC50 [3]: 78 ± 49 µM; MIC-fold improvement vs. vancomycin [4]: up to 45; MIC ([4]; C. difficile ATJ ribotype 014/20, plate drop assay): 0.78 µM (≈ 1.45 µg/mL); MIC-fold improvement vs. vancomycin ([4]; listed as Vanc- 66): 45; MIC (VE 157 (VanB)): 0.78 µM (≈ 1.45 µg/mL); MIC-fold improvement vs. vancomycin (MRSA KS89; MRSA KS8, ratio of MIC of vancomycin and MIC of analogue): 2; MIC (MRSA KS89; Staphylococcus aureus MRSA KS8, read-out: MIC): 0.39 µM (≈ 0.724 µg/mL); MIC (VE 152 (VanB)): 0.78 µM (≈ 1.45 µg/mL); MIC-fold improvement vs. vancomycin (MRSA KS1; MRSA KS1, ratio of MIC of vancomycin and MIC of analogue): 1; MIC (MRSA KS1; Staphylococcus aureus MRSA KS1, read-out: MIC): 0.78 µM (≈ 1.45 µg/mL); MIC (E. faecalis VSE 1; Enterococcus faecalis VSE 1 (vancomycin-sensitive), read-out: MIC): 0.39 µM (≈ 0.724 µg/mL); MIC-fold improvement vs. vancomycin (E. faecalis VSE 1; VSE 1, ratio of MIC of vancomycin and MIC of analogue): 4; MIC (VE 149 (VanB)): 0.78 µM (≈ 1.45 µg/mL); IC50 [5]: 243 ± 10 µM; MBC relative to MIC (MRSA): MBC equaling their MIC values; MIC (S. aureus VISA/HIP5827; Staphylococcus aureus VISA/HIP5827, read-out: MIC): 0.78 µM (≈ 1.45 µg/mL); MIC-fold improvement vs. vancomycin (S. aureus VISA/HIP5827; VISA/HIP5827, ratio of MIC of vancomycin and MIC of analogue): 8; IC50 [6]: > 250 µM; IC50 ([7]; average IC50 used for TI in Table S5, >250 entered as 250, read-out: IC50): 190 µM; IC50 ([7]; average of L1210, CEM and HeLa, read-out: Toxicity (IC50) Average): 190 µM; MIC (E. faecalis VRE 29; Enterococcus faecalis VRE 29 (vancomycin-resistant), read-out: MIC): 3.13 µM (≈ 5.81 µg/mL); MIC-fold improvement vs. vancomycin (E. faecalis VRE 29; VRE 29, ratio of MIC of vancomycin and MIC of analogue): 128; MIC Range (33 clinical VRE isolates; 33 clinical VRE isolates): 1.56 to 12.5 µM; TI (IC50/MIC50) (33 clinical VRE isolates; in vitro therapeutic index, VRE): 61; MIC50 (33 clinical VRE isolates; median MIC, 33 clinical VRE isolates, read-out: MIC50): 3.13 µM (≈ 5.81 µg/mL); MIC (E. faecalis VRE 37; Enterococcus faecalis VRE 37 (vancomycin-resistant), read-out: MIC): 3.13 µM (≈ 5.81 µg/mL); MIC-fold improvement vs. vancomycin (E. faecalis VRE 37; VRE 37, ratio of MIC of vancomycin and MIC of analogue): 128; MIC (VE 148 (VanB)): 1.56 µM (≈ 2.9 µg/mL); MIC (E. faecalis VRE 6; Enterococcus faecalis VRE 6 (vancomycin-resistant), read-out: MIC): 1.56 µM (≈ 2.9 µg/mL); MIC-fold improvement vs. vancomycin (E. faecalis VRE 6; VRE 6, ratio of MIC of vancomycin and MIC of analogue): 128; MIC ([8]; Staphylococcus aureus VSSA, read-out: MIC): 0.78 µM (≈ 1.45 µg/mL); MIC-fold improvement vs. vancomycin ([8]; VSSA, ratio of MIC of vancomycin and MIC of analogue): 1; MIC (E. faecalis VRE 53; Enterococcus faecalis VRE 53 (vancomycin-resistant), read-out: MIC): 25 µM (≈ 46.4 µg/mL); MIC-fold improvement vs. vancomycin (E. faecalis VRE 53; VRE 53, ratio of MIC of vancomycin and MIC of analogue): 16; MIC-fold improvement vs. vancomycin (MRSA KS6; MRSA KS6, ratio of MIC of vancomycin and MIC of analogue): 4; MIC (MRSA KS6; Staphylococcus aureus MRSA KS6, read-out: MIC): 0.20 µM (≈ 0.371 µg/mL); MIC (S. aureus VRSA; Staphylococcus aureus VRSA, read-out: MIC): 0.39 µM (≈ 0.724 µg/mL); MIC-fold improvement vs. vancomycin (S. aureus VRSA; VRSA, ratio of MIC of vancomycin and MIC of analogue): 256
